The subject of one series is acetylcholinesterase. To be noted: in words; cited from earlier work.
Series [1] has as its target Acetylcholinesterase from Electrophorus electricus (electric eel) (Electrophorus electricus, UniProt O42275). Put plainly: biochemical.
The target of series [2] is Butyrylcholinesterase from equine serum (Equus caballus, UniProt P81908). Put plainly: biochemical.
Series [3] can be described thus: Biodistribution of radioactivity in rats after intravenous 99mTc-6a. To be noted: 99mTc-labelled, in words.
Description: For biodistribution studies, male Wistar rats weighing 190–260 g were used. Prior to the experiment, the animals were fasted overnight (to empty the bowels), but had free access to water. All animal experiments were approved by the Ethics Committee of the Faculty of Pharmacy, Charles University, Hradec Kralove.
The agent was administered to rats intravenously in a volume of 0.2 mL. During the course of the experiments, each animal was placed in an individual cage. At various time points after injection, the carotid artery was exposed under ether anesthesia and a blood sample was collected in glass tubes containing dry heparin. The rats were sacrificed and dissected.
The results were expressed as mean ± standard deviations of at least four animals.

Structures are written as SMILES. Where a name gives a salt, the structure may show the parent alone.

Sequence of Acetylcholinesterase from Electrophorus electricus (electric eel) (O42275 24-633): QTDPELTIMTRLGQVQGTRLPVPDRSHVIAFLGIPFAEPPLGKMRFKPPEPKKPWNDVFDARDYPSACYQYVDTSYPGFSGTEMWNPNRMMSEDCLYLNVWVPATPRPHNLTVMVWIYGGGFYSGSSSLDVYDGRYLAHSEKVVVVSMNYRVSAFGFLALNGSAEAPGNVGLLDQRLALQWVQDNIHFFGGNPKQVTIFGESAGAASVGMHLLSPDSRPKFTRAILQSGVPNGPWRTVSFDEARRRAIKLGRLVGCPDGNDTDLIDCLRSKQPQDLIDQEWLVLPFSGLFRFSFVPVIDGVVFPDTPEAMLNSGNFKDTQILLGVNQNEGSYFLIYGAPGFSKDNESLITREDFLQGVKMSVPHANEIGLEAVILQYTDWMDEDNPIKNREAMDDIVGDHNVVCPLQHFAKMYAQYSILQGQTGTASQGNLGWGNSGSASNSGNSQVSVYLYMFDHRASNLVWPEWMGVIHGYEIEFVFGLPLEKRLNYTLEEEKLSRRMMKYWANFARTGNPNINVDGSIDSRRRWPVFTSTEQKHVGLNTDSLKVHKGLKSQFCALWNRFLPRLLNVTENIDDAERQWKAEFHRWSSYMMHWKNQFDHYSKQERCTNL
Sequence of Butyrylcholinesterase from equine serum (P81908 whole entry): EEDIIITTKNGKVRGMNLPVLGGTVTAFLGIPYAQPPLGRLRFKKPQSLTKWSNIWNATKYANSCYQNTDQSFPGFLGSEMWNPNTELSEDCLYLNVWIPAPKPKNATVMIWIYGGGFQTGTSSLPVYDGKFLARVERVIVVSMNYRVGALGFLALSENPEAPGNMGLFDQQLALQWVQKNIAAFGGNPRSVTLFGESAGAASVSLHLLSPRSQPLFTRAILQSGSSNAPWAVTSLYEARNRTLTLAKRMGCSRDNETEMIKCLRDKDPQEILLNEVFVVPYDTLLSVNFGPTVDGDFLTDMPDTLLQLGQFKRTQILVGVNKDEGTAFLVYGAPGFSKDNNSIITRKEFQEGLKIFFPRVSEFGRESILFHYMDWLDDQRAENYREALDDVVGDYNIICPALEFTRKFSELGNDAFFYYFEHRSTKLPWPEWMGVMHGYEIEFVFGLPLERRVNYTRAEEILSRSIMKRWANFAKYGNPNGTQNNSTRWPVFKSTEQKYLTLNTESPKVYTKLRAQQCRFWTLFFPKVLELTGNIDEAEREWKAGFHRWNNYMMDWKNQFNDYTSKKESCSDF

Turning to `Nc1c2c(nc3cc(Cl)ccc13)CCCC2O` (stereo not shown) [6-chlorotacrin-1-ol], the “potency compared with tacrine” value in the series with acetylcholinesterase is reported as “more potent than tacrine”.

With `Nc1c2c(nc3cc(F)ccc13)CCCC2O` (stereo not shown) [6-fluorotacrin-1-ol], the “potency compared with tacrine” value in the series with acetylcholinesterase is “more potent than tacrine”.

As to `Cl.NNc1ccc(C(=O)NCCNc2c3c(nc4ccccc24)CCC3)cn1` [Compound 6a, 6-Hydrazino-N-[2-(2,3-dihydro-1H-cyclopenta[b]quinolin-9-ylamino)Ethyl]nicotinamide hydrochloride], the IC50 in series [1] worked out at 31.5 ± 1.9 nM; in series [2], 164 ± 1.6 nM. Also, the blood radioactivity clearance result in series [3] was “comparatively rapid”.

For the compound `NNc1ccc(C(=O)NCCCNc2c3c(nc4ccccc24)CCC3)cn1` [Compound 6b, 6-Hydrazino-N-[3-(2,3-dihydro-1H-cyclopenta[b]quinolin-9-ylamino)propyl]nicotinamide hydrochloride], the IC50 in series [1] worked out at 19.3 ± 1.1 nM; in series [2], 197 ± 3.4 nM.

For `NNc1ccc(C(=O)NCCCCNc2c3c(nc4ccccc24)CCC3)cn1` [Compound 6c, 6-Hydrazino-N-[4-(2,3-dihydro-1H-cyclopenta[b]quinolin-9-ylamino)butyl]nicotinamide hydrochloride], the IC50 in series [1] came out at 22.4 ± 1.7 nM; in series [2] it was 2650 ± 9.5 nM.

With `NNc1ccc(C(=O)NCCCCCNc2c3c(nc4ccccc24)CCC3)cn1` [Compound 6d, 6-Hydrazino-N-[5-(2,3-dihydro-1H-cyclopenta[b]quinolin-9-ylamino)pentyl]nicotinamide hydrochloride], the figures for the IC50 in series [1] and in series [2] were 7.84 ± 2.2 nM and 4240 ± 2.2 nM, respectively.

Regarding `NNc1ccc(C(=O)NCCCCCCNc2c3c(nc4ccccc24)CCC3)cn1` [Compound 6e, 6-Hydrazino-N-[6-(2,3-dihydro-1H-cyclopenta[b]quinolin-9-ylamino)hexyl]nicotinamide hydrochloride], the IC50 in series [1] came out at 41.6 ± 1 nM; in series [2], 16600 ± 17.5 nM.

As for `NNc1ccc(C(=O)NCCCCCCCNc2c3c(nc4ccccc24)CCC3)cn1` [Compound 6f, 6-Hydrazino-N-[7-(2,3-dihydro-1H-cyclopenta[b]quinolin-9-ylamino)heptyl]nicotinamide hydrochloride], the IC50 in series [1] came out at 17.6 ± 0.8 nM; in series [2] it was 22700 ± 20.6 nM.

On to `NNc1ccc(C(=O)NCCCCCCCCNc2c3c(nc4ccccc24)CCC3)cn1` [Compound 6g, 6-Hydrazino-N-[8-(2,3-dihydro-1H-cyclopenta[b]quinolin-9-ylamino)octyl]nicotinamide hydrochloride], for which the half-maximal inhibitory concentration (IC50) in series [1] stood at 5.17 ± 1.4 nM; in series [2] it was 19600 ± 16.4 nM.

As for `NNc1ccc(C(=O)NCCCCCCCCCNc2c3c(nc4ccccc24)CCC3)cn1` [Compound 6h, 6-Hydrazino-N-[9-(2,3-dihydro-1H-cyclopenta[b]quinolin-9-ylamino)nonyl]nicotinamide hydrochloride], the concentration for half-maximal inhibition (IC50) in series [1] was 3.65 ± 0.5 nM; in series [2], 17100 ± 21.3 nM.

As usually defined, the IC50 is the midpoint of a concentration-inhibition curve. High values mean lower potency, low ones higher potency.

The values above are taken from PMC3431846, “2,3-Dihydro-1H-cyclopenta[b]quinoline Derivatives as Acetylcholinesterase Inhibitors—Synthesis, Radiolabeling and Biodistribution” (International Journal of Molecular Sciences, 2012).
